Data: patent US20260347843A1, “NERVOUS SYSTEM DELIVERY ENHANCER” (priority 2022, published 2026)

Key:
Mapt mRNA = Mapt mRNA expression level in the hippocampus after intraventricular administration (target gene suppression effect); assay type: in vivo, mouse; conditions: 7 days
Description: Seven-week-old female ICR mice anesthetized with 2.5 to 4% isoflurane were fixed to a brain stereotaxic apparatus. Then, skin between the ears was cut open 2 to 3 cm anteroposteriorly, and perforated 1 mm leftward and 0.2 mm posteriorly from the bregma using a 1 mm diameter drill. A Hamilton syringe was filled with the nucleic acid agent. Through the perforated site, a needle was inserted approximately 3 mm deep. The ASO at a dose of 0.95 nmol (5 μg) per mouse was administered into the left lateral ventricle (n=4 to 7/group). The group to which ASO and TGN-073 were coadministered (hereinafter, the group is referred to as the “ASO/TGN-073 coadministration group”) means that ASO mixed with TGN-073 was administered. […]
Next, quantitative RT-PCR was performed with TaqMan (Roche Applied Science). Primers used in quantitative RT-PCR were products designed and manufactured by Thermo Fisher Scientific Inc. (formerly known as Life Technologies Corp.) on the basis of the various numbers of genes. […] The ratio of the expression amount of Malat1 RNA to the expression amount of Actb mRNA (internal standard gene) was calculated, and a value standardized with respect to the value of the PBS-treated group was determined as a relative Malat1 RNA level. […]

[1] = Evaluation of central nervous system toxicity (acute tolerability score); assay type: in vivo, mouse; conditions: intraventricular
Description: On the ASO described in Table 2, the preparation of the nucleic acid, an in vivo experiment, and the evaluation of the target gene suppression effect were performed by the same methods as in Example 1. In this Example, however, the dose of the nucleic acid agent per mouse was 9.4 nmol (50 μg).
By the below-described methods, evaluation of central nervous system toxicity and evaluation of motor function were performed on mice after intraventricular administration.
In the evaluation of central nervous system toxicity, the behavior was evaluated, using the scoring system shown in FIG. 6, at 30 minutes, 1 hour, and 2 hours after the intraventricular administration. According to the scoring system shown in FIG. 6, the behaviors classified into five categories were evaluated (Categories 1 to 5 in FIG. 6). Each category comprises two behavior evaluation items. Each behavior evaluation item is rated in five stages from 0 to 4 points (Scores 0 to 4 in FIG. 6). A normal behavior is given 0 point, and higher toxicity is given a higher score. In each category, the higher score in the two behavior evaluation items is adopted as the score for the category. The total value of the scores for the five categories is defined as an acute tolerability score (0 to 20 points).

Sod1 mRNA = Sod1 mRNA expression level in the hippocampus after intraventricular administration of siRNA; assay type: in vivo, mouse; conditions: coadministered with siRNA (7.0 nmol, 100 μg), 7 days
[2] = ASO concentration in spinal cord and left hippocampus after intrathecal administration; assay type: in vivo; conditions: rat, coadministered with Mapt-targeting ASO of Table 2 (76 nmol, 400 μg per rat), 7 days
Description: In this Example, an ASO having the same configuration as the ASO used in Example 3 (the ASO described in Table 2) was used, and a nucleic acid was prepared by the same method as in Example 1.
The intrathecal administration of ASO and the measurement of the ASO concentration were performed by the following methods. A catheter was inserted into the spinal subarachnoid of an 8-week-old Slc:SD rat (male). When the rat was 9 weeks old, ASO and/or TGN-073 in an amount of 76 nmol (400 μg) per rat ([…]) was administered intrathecally. Hereinafter, the rats to which ASO alone was intrathecally administered are referred to as the “ASO single administration group”, and the rats to which ASO and TGN-073 were intrathecally administered together are referred to as the “ASO/TGN-073 coadministration group”. The spinal part and the left hippocampus were extirpated from the rats at 7 days after the intrathecal administration, and the ASO concentration in each tissue was evaluated by the same method as in Example 1.

[3] = VHH antibody concentration in brain tissue after intraventricular administration (Alexa 647 fluorescence); assay type: in vivo; conditions: coadministered with VHH antibody (29 μmol/mouse), TGN-073 250 μg/mouse, left hippocampus, left occipital cortex, left basal ganglia, 3 hours
Description: In this Example, a fluorescence-labeled camelized single domain antibody (VHH antibody; Alpaca anti-Rabbit IgG Nano (VHH) Recombinant Secondary Antibody, Alexa Fluor (trademark)647, #SA5-10327, Invitrogen) alone or in combination with TGN-073 (250 μg/mouse) was intraventricularly administered at a dose of […] to an 8-week-old ICR mouse (female). Hereinafter, the mice to which the VHH antibody alone was intraventricularly administered are referred to as the “VHH antibody single administration group”, and the mice to which the VHH antibody and TGN-073 were intraventricularly administered together are referred to as the “VHH antibody/TGN-073 coadministration group”. Brain tissue samples of the left hippocampus, left occipital cortex, and left basal ganglia were collected from the mice at 3 hours after the intraventricular administration. Using a fluorescence plate reader (M1000Pro, Tecan Group Ltd.), the Alexa 647 fluorescence intensity per brain weight was measured to thereby evaluate the concentration of the VHH antibody in each brain tissue.

## O=S(=O)(Nc1ncccc1OCc1ccccc1)c1ccccc1 [TGN-073, N-(3-benzyloxypyridin-2-yl)-benzene-sulfonamide]
Mapt mRNA; Example 7, coadministered with Mapt-targeting ASO of Table 6 (9.4 nmol, 50 μg), TGN-073-mes 0.125 mg/mouse per method
  Target gene (Mapt) suppression effect in the hippocampus vs ASO single administration: marked enhancement
Mapt mRNA; coadministered with Mapt-targeting ASO of Table 2 (9.4 nmol, 50 μg)
  Target gene (Mapt) suppression effect in the hippocampus vs ASO single administration: marked augmentation
[1]; TGN-073 single administration, 30 minutes, 1 hour, and 2 hours
  Central nervous system toxicity: no toxicity
[1]; TGN-073 single administration, 30 minutes, 1 hour, and 2 hours, scale 0 to 20 points
  Acute tolerability score: 0
[1]; coadministered with Mapt-targeting ASO (50 μg), 30 minutes, 1 hour, 2 hours
  Acute tolerability score vs ASO single administration: substantially the same acute tolerability score as the ASO single administration group
[1]; coadministered with Mapt-targeting ASO
  Augmentation of neurotoxicity by TGN-073 coadministration: no recognizable augmentation of neurotoxicity at all
Sod1 mRNA
  Target gene (Sod1) suppression effect in the brain (hippocampus) vs siRNA single administration: marked augmentation
[2]
  ASO concentration in the left hippocampus vs ASO single administration: dramatic increase
  ASO concentration in the spinal part vs ASO single administration: dramatic increase
[3]
  VHH antibody concentration in the central nervous system vs VHH antibody single administration: dramatic increase
